Results: publication PMC9458059, “Design, Synthesis and Biological Evaluation of New Carbohydrate-Based Coumarin Derivatives as Selective Carbonic Anhydrase IX Inhibitors via “Click” Reaction” (Molecules, 2022)
Read-outs that look alike come from different tables or passages of the source.

Key:
hCA IX = molecular target: T1, hCA IX (Homo sapiens, UniProt Q16790); assay: CA inhibition by the esterase assay, hCA IX; format: biochemical; conditions: for IC50: human recombinant enzyme, esterase assay, 4-nitrophenylacetate as substrate; for Selectivity Ratio hCA I/hCA IX / Selectivity Ratio hCA II/hCA IX: ratio of IC50 values
T1 construct: purchased
Method: (§1) The esterase assay was used for testing the inhibitory activities of target compounds against carbonic anhydrases. […] Next, the stock solution of inhibitor was diluted to the specified concentration by using analysis buffer. […] In addition, the purchased CA was diluted with analysis buffer and added to 96-well plates. Next, different concentrations of inhibitors were also added to 96-well plates. To form the inhibitors and enzymes complex, E-I solutions were preincubated together for 4 h before the test at room temperature. Meanwhile, the nonenzymatic hydrolysis rates were tested by the blank control experiments. The absorbances were determined by using multifunctional enzyme marking instrument.

MDA-MB-231 cells = assay: Cell viability MTT assay, MDA-MB-231; format: cell-based; conditions: Homo sapiens
Method: (§2) In the present study, the potential cytotoxicity of compounds 10a–10p was evaluated in vitro by MTT assay. […] So, half of each cell line were subjected to hypoxic conditions (0.5% O2, 5% CO2 and 94.5% N2) for inducing the expression of CA IX and the other half were incubated under normal conditions (normoxia). Subsequently, all synthesized derivatives were screened at a concentration of 100 μM to test their cytotoxicity in mentioned above cells.
(§3) The two human cancer cell lines were cultivated for 24 h at 37 °C in a 96-well plate. Subsequently, different concentrations of inhibitors were added to 96-well plate and then was incubated for 96 hours. After the MTT solution was added to per well, cancer cells were further incubated for 4 h at 37 °C. Finally, formazan crystals were dissolved by using DMSO. The cancer cells were from American Type Culture Collection.

[1] = Metabolic stability in mouse liver microsomes; conditions: mouse, liver microsomes
hCA II = hCA II (Homo sapiens, UniProt P00918); assay: CA inhibition by the esterase assay, hCA II; format: biochemical; conditions: human recombinant enzyme, 4-nitrophenylacetate as substrate
Method: as §1

HT-29 cells = assay: Cell viability MTT assay, HT-29; format: cell-based; conditions: Homo sapiens
Method: as §2, §3

hCA I = molecular target: T2, hCA I (Homo sapiens, UniProt P00915); assay: CA inhibition by the esterase assay, hCA I; format: biochemical; conditions: human recombinant enzyme, 4-nitrophenylacetate as substrate
T2 construct: purchased
Method: as §1

[2] = hypoxia (0.5% O2, 5% CO2 and 94.5% N2), read-out: Cell Viability (%) MDA-MB-231 Hypoxia
[3] = normoxia, read-out: Cell Viability (%) MDA-MB-231 Normoxia
[4] = hypoxia (0.5% O2, 5% CO2 and 94.5% N2), read-out: Cell Viability (%) HT-29 Hypoxia
[5] = normoxia, read-out: Cell Viability (%) HT-29 Normoxia

T2 sequence (P00915 whole entry): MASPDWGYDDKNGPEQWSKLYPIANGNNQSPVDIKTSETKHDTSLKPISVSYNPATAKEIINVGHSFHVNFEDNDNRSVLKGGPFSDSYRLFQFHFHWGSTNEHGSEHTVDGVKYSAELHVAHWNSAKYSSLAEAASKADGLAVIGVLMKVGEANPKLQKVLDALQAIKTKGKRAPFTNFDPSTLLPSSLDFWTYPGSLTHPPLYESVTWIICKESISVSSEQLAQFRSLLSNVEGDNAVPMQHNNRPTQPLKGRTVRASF

Structure (SMILES) | melting point [°C] | IC50 (hCA IX) [µM] | Selectivity Ratio hCA I/hCA IX (hCA IX) | Selectivity Ratio hCA II/hCA IX (hCA IX) | CLint scaled at 1 μM [1] [mL/min/kg] | half-life at 1 μM [1] [h] | IC50 (hCA II) [µM] | IC50 (hCA I) [µM] | viability at 100 µM (MDA-MB-231 cells; [2]) [%] | viability at 100 µM (MDA-MB-231 cells; [3]) [%] | viability at 100 µM (HT-29 cells; [4]) [%] | viability at 100 µM (HT-29 cells; [5]) [%]
Cc1cc(=O)oc2cc(OCc3cn([C@@H]4OC[C@@H](O)[C@H](O)[C@H]4O)nn3)ccc12 [Compound 10m, 7-[(1-β-. D-xylopyranosyl-1H-1,2,3-triazol-4-yl)methoxy]-4-methyl-2H-chromen-2-one] | 122.4 to 123.9 | 0.067 | 655 | 337 | 3.38 | 27.1 | 22.6 | 43.9 | 39.8 | 53.2 | 35.5 | 40.5
O=c1ccc2ccc(OCc3cn([C@@H]4OC[C@H](O)[C@H](O)[C@H]4O)nn3)cc2o1 [Compound 10f, 7-[(1-β-. L-arabinopyranosyl-1H-1,2,3-triazol-4-yl)methoxy]-2H-chromen-2-one] | 133.1 to 135.1 | 0.042 | 1562 | 755 | 3.75 | 24.4 | 31.7 | 65.6 | 33.8 | 65.6 | 38.1 | 48.7
Cc1cc(=O)oc2cc(OCc3cn([C@H]4O[C@@H](C)[C@H](O)[C@@H](O)[C@H]4O)nn3)ccc12 [Compound 10o, 7-[(1-β-. L-rhamnosyl-1H-1,2,3-triazol-4-yl)methoxy]-4-methyl-2H-chromen-2-one] | 125.5 to 127.7 | 0.096 | 599 | 334 | 3.13 | 29.2 | 32.1 | 57.5 | 38.7 | 60.3 | 33.3 | 45.7
Cc1cc(=O)oc2cc(OCc3cn([C@@H]4O[C@H](CO)[C@H](O)[C@H](O)[C@H]4O)nn3)ccc12 [Compound 10j, 7-[(1-β-. D-galactopyranosyl-1H-1,2,3-triazol-4-yl)methoxy]-4-methyl-2H-chromen-2-one] | 124.2 to 126.6 | 0.098 | 450 | 164 | 3.5 | 26.1 | 16.1 | 44.1 | 40.9 | 64.7 | 46.4 | 60.2
Cc1cc(=O)oc2cc(OCc3cn([C@@H]4O[C@H](CO)[C@@H](O)[C@H](O)[C@H]4O)nn3)ccc12 [Compound 10i, 7-[(1-β-. D-glucopyranosyl-1H-1,2,3-triazol-4-yl)methoxy]-4-methyl-2H-chromen-2-one] | 127.9 to 130.2 | 0.084 | 382 | 167 | 3.83 | 23.9 | 14 | 32.1 | 33.2 | 65.2 | 42.6 | 48.5
CC(=O)Nc1nnc(S(N)(=O)=O)s1 [AAZ, acetazolamide, reference compound] |  |  |  |  |  |  |  |  | 80.3 | 84.7 | 80.1 | 85.2

Continued, in another order:

melting point [°C] | IC50 (hCA IX) [µM] | Selectivity Ratio hCA I/hCA IX (hCA IX) | Selectivity Ratio hCA II/hCA IX (hCA IX) | CLint scaled at 1 μM [1] [mL/min/kg] | half-life at 1 μM [1] [h] | IC50 (hCA II) [µM] | IC50 (hCA I) [µM] | Structure (SMILES) | viability at 100 µM (MDA-MB-231 cells; [2]) [%] | viability at 100 µM (MDA-MB-231 cells; [3]) [%] | viability at 100 µM (HT-29 cells; [4]) [%] | viability at 100 µM (HT-29 cells; [5]) [%]
126.1 to 129.6 | 0.124 | 294 | 255 | 3.65 | 25 | 31.6 | 36.5 | C[C@@H]1O[C@H](n2cc(COc3ccc4ccc(=O)oc4c3)nn2)[C@H](O)[C@H](O)[C@H]1O [Compound 10g, 7-[(1-β-. L-rhamnosyl-1H-1,2,3-triazol-4-yl)methoxy]-2H-chromen-2-one] | 36.1 | 53.2 | 38.7 | 42.4
123.2 to 125.6 | 0.098 | 647 | 229 | 2.98 | 30.7 | 22.4 | 63.4 | Cc1cc(=O)oc2cc(OCc3cn([C@@H]4O[C@H](CO)[C@@H](O)[C@H]4O)nn3)ccc12 [Compound 10p, 7-[(1-β-. D-ribofuranosyl-1H-1,2,3-triazol-4-yl)methoxy]-4-methyl-2H-chromen-2-one] | 35.2 | 73.1 | 36.7 | 63.1
121.5 to 122.6 | 0.042 | 1167 | 548 | 3.25 | 28.1 | 23 | 49 | Cc1cc(=O)oc2cc(OCc3cn([C@@H]4O[C@H](CO)[C@@H](O)[C@H](O)[C@@H]4O)nn3)ccc12 [Compound 10k, 7-[(1-β-. D-mannopyranosyl-1H-1,2,3-triazol-4-yl)methoxy]-4-methyl-2H-chromen-2-one] | 33.7 | 61.3 | 40.3 | 52.3
 | 0.074 | 328 | 423 | 4.33 | 21.1 | 31.3 | 24.3 | O=c1ccc2ccc(OCc3cn([C@@H]4O[C@H](CO)[C@H](O)[C@H](O)[C@H]4O)nn3)cc2o1 [Compound 10b, 7-[(1-β-. D-galactopyranosyl-1H-1,2,3-triazol-4-yl)methoxy]-2H-chromen-2-one] | 33.7 | 61.4 | 48.7 | 50.5
131.3 to 134.2 | 0.057 | 904 | 575 | 4.26 | 21.5 | 32.8 | 51.5 | N[C@@H]1[C@@H](O)[C@H](O)[C@@H](CO)O[C@H]1n1cc(COc2ccc3ccc(=O)oc3c2)nn1 [Compound 10d, 7-[(1-β-. D-glucosaminogly-1H-1,2,3-triazol-4-yl)methoxy]-2H-chromen-2-one] | 38.9 | 60.2 | 45.6 | 57
128.4 to 130.6 | 0.061 | 693 | 344 | 4.04 | 22.6 | 21 | 42.3 | O=c1ccc2ccc(OCc3cn([C@@H]4OC[C@@H](O)[C@H](O)[C@H]4O)nn3)cc2o1 [Compound 10e, 7-[(1-β-. D-xylopyranosyl-1H-1,2,3-triazol-4-yl)methoxy]-2H-chromen-2-one] | 42.9 | 58.2 | 39.5 | 49.3
